Data: US10792272B2, “Methods for treatment of Clostridium difficile infections” (priority 2016, dated 2020)
In brackets after ≈: the same amount, converted by molar mass.

Assays:
[1] = tested on: C. difficile 630 (CD630, ATCC BAA-1382); experiment: MIC by broth microdilution against C. difficile 630; format: cell-based, Clostridium difficile; conditions: Table 1, strain 630, 20-24 h, 37° C.; for MIC: Clostridioides difficile, ATCCBAA1382
[2] = tested on: C. difficile 4118 (CD4118, ATCC BAA-1870, BI/NAP1/027); experiment: MIC by broth microdilution against C. difficile 4118; format: cell-based, Clostridium difficile; conditions: Table 1, strain 4118, 20-24 h, 37° C.; for MIC: Clostridioides difficile, ATCCBAA1870, read-out: MIC C. difficile 4118
B. subtilis ATCC 6051 = experiment: MIC against aerobic bacteria; format: cell-based, Bacillus subtilis; conditions: aerobic
S. aureus RN4220 = experiment: MIC against aerobic bacteria; format: cell-based; conditions: aerobic; for MIC: Staphylococcus aureus, RN4220, read-out: MIC S. aureus RN4220
S. epidermidis 1457 = experiment: MIC against aerobic bacteria; format: cell-based; conditions: aerobic
A. baumannii M2 = experiment: MIC against aerobic bacteria; format: cell-based; conditions: aerobic
P. aeruginosa PAO1 = experiment: MIC against aerobic bacteria; format: cell-based, Pseudomonas aeruginosa; conditions: aerobic
C. sporogenes ATCC 15579 = experiment: microbe, parasite or virus in culture; format: cell-based, Clostridium sporogenes; conditions: for MIC: Clostridium sporogenes, ATCC15579, read-out: MIC C. sporogenes ATCC 15579
[3] = tested on: C. clostridioforme ATCC 25537; experiment: MIC against anaerobic bacteria; format: cell-based, Clostridium clostridioforme; conditions: anaerobic
[4] = tested on: B. thetaiotaomicron ATCC 29148; experiment: microbe, parasite or virus in culture; format: cell-based; conditions: for MIC B. thetaiotaomicron ATCC 29148: anaerobic
P. distasonis ATCC 8503 = experiment: MIC against anaerobic bacteria; format: cell-based, Parabacteroides distasonis; conditions: anaerobic
P. nigrescens ATCC 33563 = experiment: MIC against anaerobic bacteria; format: cell-based, Prevotella nigrescens; conditions: anaerobic
[5] = tested on: C. difficile strains 630 (CD630) and 4118 (CD4118); experiment: MIC / growth inhibition against C. difficile, covering both strains; format: cell-based, Clostridium difficile
[6] = tested on: panel of aerobic and anaerobic organisms; format: cell-based
[7] = tested on: Clostridium difficile strain 4118; experiment: Minimum bactericidal concentration (MBC), logarithmic- and stationary-phase cells; format: cell-based; conditions: stationary-phase cells of strain 4118; 3-log reduction of inoculum
Description: The MBClog values of the protonophores were determined to be 0.25-2 μg/mL (˜4 to 8-fold greater than their respective MIC values).
Clostridium difficile strain 4118 was grown to OD600˜0.4-0.5 (logarithmic phase) or for 24 h (stationary phase), and thereafter added to two-fold serial dilutions of test compounds. Cultures were incubated for 20-24 h at 37° C., and then viable counts were enumerated on BHIS agar plates. […] MBC measurements were performed in duplicate.

## O=C(Nc1ccc(Cl)cc1)c1cc(I)cc(I)c1O [Compound 7b]
[1]
  MIC C. difficile 630: 0.25 µg/mL (≈ 0.501 µM)
[2]
  MIC C. difficile 4118: 0.5 µg/mL (≈ 1 µM)
B. subtilis ATCC 6051
  MIC B. subtilis ATCC 6051: 0.06 µg/mL (≈ 0.12 µM)
S. aureus RN4220
  MIC S. aureus RN4220: 0.06 µg/mL (≈ 0.12 µM)
S. epidermidis 1457
  MIC S. epidermidis 1457: ≤0.03 µg/mL
A. baumannii M2
  MIC A. baumannii M2: 32 µg/mL (≈ 64.1 µM)
P. aeruginosa PAO1
  MIC P. aeruginosa PAO1: >32 µg/mL
C. sporogenes ATCC 15579
  MIC C. sporogenes ATCC 15579: 16 µg/mL (≈ 32 µM)
[3]
  MIC C. clostridioforme ATCC 25537: 16 µg/mL (≈ 32 µM)
[4]
  MIC B. thetaiotaomicron ATCC 29148: >32 µg/mL
P. distasonis ATCC 8503
  MIC P. distasonis ATCC 8503: 8 µg/mL (≈ 16 µM)
P. nigrescens ATCC 33563
  MIC P. nigrescens ATCC 33563: 4 µg/mL (≈ 8.01 µM)

## O=C(Nc1ccc(Oc2ccc(F)cc2)cc1)c1cc(I)cc(I)c1O [Compound 5e]
[1]
  MIC C. difficile 630: 0.13 µg/mL (≈ 0.226 µM)
[2]
  MIC C. difficile 4118: 0.13 µg/mL (≈ 0.226 µM)
[5]
  growth inhibitory activity against CD630 and CD4118 (in words): high in vitro potency

## O=C(Nc1ccccc1Cl)c1cc(I)cc(I)c1O [Compound 7c]
[1]
  MIC C. difficile 630: 8 µg/mL (≈ 16 µM)
[2]
  MIC C. difficile 4118: 8 µg/mL (≈ 16 µM)
[5]; one statement covering CD630 and CD4118
  MIC against C. difficile: 8 µg/mL (≈ 16 µM)

## O=C(Nc1ccc(I)cc1)c1cc(I)cc(I)c1O [Compound 7d]
[1]
  MIC C. difficile 630: 0.13 µg/mL (≈ 0.22 µM)
[2]
  MIC C. difficile 4118: 0.25 µg/mL (≈ 0.423 µM)

## O=C(Nc1ccc(Oc2ccc(Cl)cc2)cc1)c1cc(I)cc(I)c1O [Compound 5g]
[1]
  MIC C. difficile 630: 0.13 µg/mL (≈ 0.22 µM)
[2]
  MIC C. difficile 4118: 0.25 µg/mL (≈ 0.423 µM)
[5]
  growth inhibitory activity against CD630 and CD4118 (in words): high in vitro potency

## O=C(Nc1ccc2ccccc2c1)c1cc(I)cc(I)c1 [Compound 6c]
[1]
  MIC C. difficile 630: >32 µg/mL
[2]
  MIC C. difficile 4118: >32 µg/mL
[5]
  growth inhibitory activity against CD630 and CD4118 (in words): inactive

## COc1c(I)cc(I)cc1C(=O)Nc1ccc2ccccc2c1 [Compound 6b]
[1]
  MIC C. difficile 630: >32 µg/mL
[2]
  MIC C. difficile 4118: >32 µg/mL
[5]
  growth inhibitory activity against CD630 and CD4118 (in words): inactive

## O=C(Nc1ccc(Oc2ccc(Cl)cc2)cc1)c1cc(Cl)cc(Cl)c1O [Compound 8, 3,5-Dichloro-N-(4-(4-chlorophenoxy)phenyl)-2-hydroxybenzamide]
[1]
  MIC: ≤ 0.03 µg/mL
[2]
  MIC: 0.06 µg/mL (≈ 0.147 µM)
S. aureus RN4220
  MIC: 0.13 µg/mL (≈ 0.318 µM)
C. sporogenes ATCC 15579
  MIC: 4 µg/mL (≈ 9.79 µM)
[5]; Clostridioides difficile, one statement covering CD630 and CD4118, read-out: MIC against C. difficile
  MIC: ≤ 0.13 µg/mL
[5]; MIC ratio, Table 1
  enhancement of potency relative to 5g and metronidazole: 4 fold
  improvement of activity over vancomycin: ~32 fold

## Cc1ccc(Oc2ccc(NC(=O)c3cc(I)cc(I)c3O)cc2)cc1 [Compound 5f]
[1]
  MIC C. difficile 630: 0.13 µg/mL (≈ 0.228 µM)
[2]
  MIC C. difficile 4118: 0.25 µg/mL (≈ 0.438 µM)
[5]
  growth inhibitory activity against CD630 and CD4118 (in words): high in vitro potency

## O=C(Nc1ccc(Oc2ccc(Cl)cc2)cc1)c1cc(I)cc(I)c1 [Compound 5i]
[1]
  MIC C. difficile 630: >32 µg/mL
[2]
  MIC C. difficile 4118: >32 µg/mL
B. subtilis ATCC 6051
  MIC B. subtilis ATCC 6051: >32 µg/mL
S. aureus RN4220
  MIC S. aureus RN4220: >32 µg/mL
S. epidermidis 1457
  MIC S. epidermidis 1457: >32 µg/mL
A. baumannii M2
  MIC A. baumannii M2: >32 µg/mL
P. aeruginosa PAO1
  MIC P. aeruginosa PAO1: >32 µg/mL
C. sporogenes ATCC 15579
  MIC C. sporogenes ATCC 15579: >32 µg/mL
[3]
  MIC C. clostridioforme ATCC 25537: >32 µg/mL
[4]
  MIC B. thetaiotaomicron ATCC 29148: >32 µg/mL
P. distasonis ATCC 8503
  MIC P. distasonis ATCC 8503: >32 µg/mL
P. nigrescens ATCC 33563
  MIC P. nigrescens ATCC 33563: >32 µg/mL
[5]
  growth inhibitory activity against CD630 and CD4118 (in words): inactive
[6]
  antibacterial spectrum (in words): lacked antibacterial activity

## O=C(Nc1ccc(-c2ccccc2)cc1)c1cc(I)cc(I)c1O [Compound 7a]
[1]
  MIC C. difficile 630: 0.5 µg/mL (≈ 0.924 µM)
[2]
  MIC C. difficile 4118: 1 µg/mL (≈ 1.85 µM)

## O=C(Nc1ccc(Oc2ccccc2)cc1)c1cc(I)cc(I)c1 [Compound 5c]
[1]
  MIC C. difficile 630: >32 µg/mL
[2]
  MIC C. difficile 4118: >32 µg/mL
[5]
  growth inhibitory activity against CD630 and CD4118 (in words): inactive

## COc1c(I)cc(I)cc1C(=O)Nc1ccc(Oc2ccc(Cl)cc2)cc1 [Compound 5h]
[1]
  MIC C. difficile 630: >32 µg/mL
[2]
  MIC C. difficile 4118: >32 µg/mL
[5]
  growth inhibitory activity against CD630 and CD4118 (in words): inactive

## CN(C(=O)c1cc(I)cc(I)c1O)c1ccc(Oc2ccccc2)cc1 [Compound 5d]
[1]
  MIC C. difficile 630: >32 µg/mL
[2]
  MIC C. difficile 4118: >32 µg/mL
[5]
  growth inhibitory activity against CD630 and CD4118 (in words): inactive

## O=C(Nc1ccc2ccccc2c1)c1cc(I)cc(I)c1O [Compound 6a]
[1]
  MIC C. difficile 630: 0.5 µg/mL (≈ 0.971 µM)
[2]
  MIC C. difficile 4118: 0.5 µg/mL (≈ 0.971 µM)
B. subtilis ATCC 6051
  MIC B. subtilis ATCC 6051: 0.06 µg/mL (≈ 0.116 µM)
S. aureus RN4220
  MIC S. aureus RN4220: 0.25 µg/mL (≈ 0.485 µM)
S. epidermidis 1457
  MIC S. epidermidis 1457: 0.06 µg/mL (≈ 0.116 µM)
A. baumannii M2
  MIC A. baumannii M2: >32 µg/mL
P. aeruginosa PAO1
  MIC P. aeruginosa PAO1: >32 µg/mL
C. sporogenes ATCC 15579
  MIC C. sporogenes ATCC 15579: 8 µg/mL (≈ 15.5 µM)
[3]
  MIC C. clostridioforme ATCC 25537: 4 µg/mL (≈ 7.77 µM)
[4]
  MIC B. thetaiotaomicron ATCC 29148: >32 µg/mL
P. distasonis ATCC 8503
  MIC P. distasonis ATCC 8503: 16 µg/mL (≈ 31.1 µM)
P. nigrescens ATCC 33563
  MIC P. nigrescens ATCC 33563: 8 µg/mL (≈ 15.5 µM)
[5]
  growth inhibitory activity against CD630 and CD4118 (in words): high in vitro potency

## Cc1ncc([N+](=O)[O-])n1CCO [Metronidazole, metronidazole, reference compound]
[1]
  MIC: 0.25 µg/mL (≈ 1.46 µM)
[2]
  MIC: 0.25 µg/mL (≈ 1.46 µM)
[7]
  MBCstat: >32 µg/mL
S. aureus RN4220
  MIC: > 32 µg/mL
C. sporogenes ATCC 15579
  MIC: 0.25 µg/mL (≈ 1.46 µM)
[4]; Bacteroides thetaiotaomicron, ATCC29148, read-out: MIC B. thetaiotaomicron ATCC 29148
  MIC: 1 µg/mL (≈ 5.84 µM)
[6]
  antibacterial spectrum (in words): mainly targeted anaerobic bacteria

## COc1c(I)cc(I)cc1C(=O)Nc1ccc(Oc2ccccc2)cc1 [Compound 5b]
[1]
  MIC C. difficile 630: >32 µg/mL
[2]
  MIC C. difficile 4118: >32 µg/mL
[5]
  growth inhibitory activity against CD630 and CD4118 (in words): inactive

## O=C(Nc1ccc(Oc2ccccc2)cc1)c1cc(I)cc(I)c1O [Compound 5a]
[1]
  MIC C. difficile 630: 0.5 µg/mL (≈ 0.897 µM)
[2]
  MIC C. difficile 4118: 1 µg/mL (≈ 1.79 µM)
[5]
  growth inhibitory activity against CD630 and CD4118 (in words): high in vitro potency
